Reference: article PMC3605511, “Tumor P-Glycoprotein Correlates with Efficacy of PF-3758309 in in vitro and in vivo Models of Colorectal Cancer” (Frontiers in Pharmacology, 2013)
Values joined by “and” are separate entries in the source; they are usually repeats but may differ in a detail not shown here. Identical values can stand only once. Like-named read-outs stand apart in the source and are kept apart here.

Legend:
[1] = test system: CUCRC026 CRC PDTX model; assay: Patient derived tumor xenograft efficacy, CUCRC026; format: in vivo, mice; conditions: 25 mg/kg orally twice daily, 22–56 days, end of study tumor volumes
Protocol: For patient tumor xenografts, surgical specimens of patients undergoing either removal of a primary or metastatic tumor at the University of Colorado Hospital are implanted subcutaneously into five mice for each patient with a 10-G trochar. After a subsequent growth and passage in mice, tumors are excised, and expanded into cohorts for treatment (n = 6–15 per group). Mice were treated with PF-309 or vehicle (0.5% methylcellulose) for 22–56 days (until control tumor volume reach ∼1500 mm^3) twice daily (BID) by oral gavage (PO). Monitoring of mice and measurements of tumors were conducted as described above. % Growth Inhibition= (average control volume−average treated volume)/average control volume×100% In addition to the cell line xenografts, we also treated 12 different patient derived tumor xenograft (PDTX) CRC models with PF-309 (Figure 6). We were unable to assess how ABCB1 gene expression correlated with efficacy in these models. The PDTX models are propagated in vivo, are not immortalized, and are not grown in in vitro culture. […] Tumor and plasma sample pairs were collected from animals at the end of study for eight tumor models (three cell line xenografts and five PDTX models) and concentrations of PF-309 were measured. […]

[2] = End of study tumor and plasma concentrations (LC/MS/MS); format: in vivo, mice; conditions: for Plasma concentration / Tumor concentration / Tumor: plasma ratio / concentration at 1 h / Kp at 1 h: end of study, 1 h post treatment, individual animals; for Plasma concentration / Tumor concentration / concentration at 1 h: 25 mg/kg PO BID; for concentration at 1 h: po; for Kp at 1 h: tumor and plasma, read-out: Tumor: plasma ratio
Protocol: Plasma and tumor samples were collected 1 h post treatment at the end of therapeutic studies or 6 h post treatment for P-gp tumor concentration studies. PF-309 was measured in mouse plasma and tumor tissue using a validated LC/MS/MS assay carried out by the University of Colorado Cancer Center Pharmacology Shared Resource. Positive ion electrospray ionization (ESI) mass spectra were obtained with a 3200 QTrap triple quadrupole mass spectrometer (Applied Biosystems Inc., Foster City, CA, USA) with a turboionspray source interfaced to an Agilent 1200 Series binary HPLC system (Agilent Technologies Inc., Santa Clara, CA, USA), and a HTC-PAL auto-sampler (LEAP Technologies, Carrboro, NC, USA). Samples were chromatographed with a Waters Sunfire 2.5 μm C18 column (4.6 × 50 mm; Waters Corp., Milford, MA, USA) with a Phenomenex C18 filter frit guard cartridge (Phenomenex, Torrance, CA, USA). The LC elution was done with a gradient starting at 10% Acetonitrile with 0.1% formic acid:90% 0.1% formic acid held for 1.5 min followed by a 1-min linear gradient to 98% Acetonitrile with 0.1% formic acid: 2% 0.1% formic acid at a flow rate of 750 μl/min and a sample volume of 50 μl. The total analysis time was 5.5 min.
The mass spectrometer settings were: source temperature, 600°C, ion spray voltage, 4500 V, source gas, 50, curtain gas (CUR), 10, collision gas (CAD), low, and needle position 3. Transition specific parameters used were 491.2 → 284.2/491.2 → 148.3/372.2 → 176.1: declustering potential (DP), 46.32/46.54/56.86 V, exit potential (EP), 6.45/3.23/4.08 V, collision cell entrance potential (CEP), 25.92/27.80/20.56 V, collision energy (CE), 40.00/53.10/32.75 V, collision cell exit potential (CXP), 0.42/1.47/2.72 V. Samples were quantified by the internal standard reference method in the MRM mode by monitoring for PF-3758309 transitions of m/z 491.2 → 284.2 and 491.2 → 148.3, and for the internal standard (trazodone) of m/z 372.2 → 176.1. Unknown, standard and quality control samples were extracted from mouse plasma or tumor homogenates (100 mg/ml) by the sequential addition of 5 μl 500 ng/ml internal standard (trazodone), 250 μl acetonitrile:methanol (3:1) to 50 μl plasma/tumor homogenate. Samples were then vortexed for 5 min followed by centrifugation for 10 min at 17,000 rpm. 200 μl of supernatant was then transferred to a microcentrifuge tube followed by the addition of 400 μl 0.1% formic acid followed by vortexing (5 min) and centrifugation (5 min at 13,300 rpm) and the supernatant collected (600 μl) and transferred to auto-sampler vials. The average accuracy and precision based on analysis of quality control samples was 93.1 and 98.7% for plasma samples (range: 1–2500 ng/mL) and 91.9 and 98.2% for tumor (range: 5–5000 ng/mL).
In addition to the cell line xenografts, we also treated 12 different patient derived tumor xenograft (PDTX) CRC models with PF-309 (Figure 6). We were unable to assess how ABCB1 gene expression correlated with efficacy in these models. The PDTX models are propagated in vivo, are not immortalized, and are not grown in in vitro culture. Therefore, we have observed some changes in ABCB1 gene expression in some of our models over time and the direction of the change is not consistent (data not shown). In lieu of analyzing gene expression profiles, we sought to determine if tumor concentration correlated with in vivo response. Tumor and plasma sample pairs were collected from animals at the end of study for eight tumor models (three cell line xenografts and five PDTX models) and concentrations of PF-309 were measured. […] Significant correlations (p < 0.003) were found between both tumor concentration and response and tumor to plasma ratios and response (Table 3).

Plasma concentration ([2]; CUCRC006 model, 25 mg/kg): 0.0244 µg/mL | Tumor concentration ([2]; CUCRC006 model, 25 mg/kg): 3.4 ng/g | Tumor: plasma ratio ([2]; CUCRC006 model): 0.14 | Tumor: plasma ratio ([2]; CUCRC026 model): 0.25 and 0.13 and 0.33 and 0.09 | Plasma concentration ([2]; CUCRC036 model, 25 mg/kg): 0.0406 µg/mL and 0.11 µg/mL and 0.0813 µg/mL | Tumor concentration ([2]; CUCRC036 model, 25 mg/kg): 65.7 ng/g and 30.7 ng/g and 47.6 ng/g | Tumor: plasma ratio ([2]; CUCRC036 model): 1.62 and 0.28 and 0.59 | Plasma concentration ([2]; CUCRC042 model, 25 mg/kg): 0.00117 µg/mL and 0.00458 µg/mL | Tumor concentration ([2]; CUCRC042 model, 25 mg/kg): 29.6 ng/g | Tumor: plasma ratio ([2]; CUCRC042 model): 29.8 and 6.46 | Plasma concentration ([2]; CUCRC047 model, 25 mg/kg): 0.0987 µg/mL | Tumor concentration ([2]; CUCRC047 model, 25 mg/kg): 7.5 ng/g | Tumor: plasma ratio ([2]; CUCRC047 model): 0.08 | Plasma concentration ([2]; Colo201 model, 25 mg/kg): 0.0117 µg/mL | Tumor concentration ([2]; Colo201 model, 25 mg/kg): 140.4 ng/g and 11.1 ng/g | Tumor: plasma ratio ([2]; Colo201 model): 6.72 and 0.95 | Plasma concentration ([2]; GEO model, 25 mg/kg): 0.00548 µg/mL and 0.0541 µg/mL and 0.0766 µg/mL | Tumor concentration ([2]; GEO model, 25 mg/kg): 10.2 ng/g and 15.9 ng/g and 22.9 ng/g | Tumor: plasma ratio ([2]; GEO model): 1.9 and 0.3 | Plasma concentration ([2]; HCT15 model, 25 mg/kg): 0.01 µg/mL and 0.0132 µg/mL and 0.049 µg/mL | Tumor concentration ([2]; HCT15 model, 25 mg/kg): 8.9 ng/g and 8.0 ng/g | Tumor: plasma ratio ([2]; HCT15 model): 0.68 and 0.67 and 0.16 | Cmax ([2]; mouse, plasma, oral, 25 mg/kg, mice, Cmax (1 h), read-out: total plasma concentrations at the Cmax): 0.01 to 0.1 µM | concentration at 1 h ([2]; mouse, plasma, 25 mg/kg, CUCRC006 model, read-out: Plasma concentration): 0.0424 µg/mL | concentration at 1 h ([2]; mouse, plasma, 25 mg/kg, CUCRC047 model, read-out: Plasma concentration): 0.11 µg/mL | concentration at 1 h ([2]; mouse, plasma, 25 mg/kg, Colo201 model, read-out: Plasma concentration): 0.0209 µg/mL | Kp at 1 h ([2]; mouse, oral, 25 mg/kg, CUCRC006 model): 0.08 | Kp at 1 h ([2]; mouse, oral, 25 mg/kg, CUCRC047 model): 0.04 | concentration at 1 h ([2]; mouse, tumor, 25 mg/kg, CUCRC006 model, read-out: Tumor concentration): 3.6 ng/g | concentration at 1 h ([2]; mouse, tumor, 25 mg/kg, CUCRC042 model, read-out: Tumor concentration): 34.8 ng/g | concentration at 1 h ([2]; mouse, tumor, 25 mg/kg, CUCRC047 model, read-out: Tumor concentration): 4.4 ng/g | concentration at 1 h ([2]; mouse, tumor, 25 mg/kg, HCT15 model, read-out: Tumor concentration): 6.8 ng/g
SMILES: Cc1nc(Nc2n[nH]c3c2CN(C(=O)N[C@H](CN(C)C)c2ccccc2)C3(C)C)c2sccc2n1 [PF-309]
% Growth inhibition [1]: 30% | Plasma concentration ([2]; CUCRC026 model, 25 mg/kg): 0.0254 µg/mL and 0.114 µg/mL and 0.0693 µg/mL and 0.184 µg/mL | Tumor concentration ([2]; CUCRC026 model, 25 mg/kg): 6.4 ng/g and 14.5 ng/g and 22.7 ng/g and 16.8 ng/g
